From US10117919B2, “Methods and materials for generating CD8+ T cells having the ability to recognize cancer cells expressing a HER2/neu polypeptide” (Mayo Foundation for Medical Education and Research, priority 2012, dated 2018)

How the values were obtained:
immunoproteasome = experiment: In vitro cleavage of HER-2/neu 19-mer by purified immunoproteasome; format: biochemical; conditions: from HER-2/neu 19-mer (364-382)
Experimental: (§1) The following was performed to determine if E75 is processed from HER-2/neu or HER-2/neu fragments by multi-subunit enzymes referred to as the proteasome and immunoproteasome, which are required for loading of polypeptide onto MHC class I molecules. […] (SEQ ID NO:3), was synthesized. […] The 19-mer was then cleaved using purified 20S proteasome and immunoproteasome.

20S proteasome = experiment: In vitro cleavage of HER-2/neu 19-mer by purified 20S proteasome; format: biochemical; conditions: from HER-2/neu 19-mer (364-382)
Experimental: as §1

[1] = system: 20S proteasome and immunoproteasome; experiment: Processing of longer HER-2/neu polypeptides (19-mer, 23-mer) treated with the proteasomes; format: biochemical
Experimental: as §1

[2] = system: target cells pulsed with polypeptide; experiment: IFN-γ ELIspot of polypeptide-generated CD8+ T cell lines against polypeptide-pulsed target cells; format: cell-based, human
[3] = system: breast cancer cell lines that express varying levels of HER-2/neu; format: cell-based, human
breast cancer cell lines = experiment: Cytotoxic T cell assay: lysis of breast cancer cells by polypeptide-generated CD8+ T cells; format: cell-based, human; conditions: compared to CD8+ T cells generated using p369-377
Experimental: Another in vitro assay was performed to measure lysis of the breast cancer cells by the T cells.

[4] = system: HLA-A2 / HLA-ABC restricted T cell reactivity; experiment: IFN-γ release of generated T cells in presence of neutralizing HLA-A2 or HLA-ABC antibodies; format: cell-based, human; conditions: versus control isotype matched antibody
tumor cells = experiment: Tumor cell lysis by generated T cells in presence of neutralizing HLA-A2 or HLA-ABC antibodies; format: cell-based, human

Sequence | Peptide generated by immunoproteasome (immunoproteasome) | Peptide generated by proteasome (20S proteasome) | further results
FAGCKKIFGS (homo sapiens) | + | + | 
FGSLAFLPES (homo sapiens) [HER-2/neu amino acids 371-380] | + | + | 
AFLPESFD (homo sapiens) | + | + | 
GSLAFLPESF (homo sapiens) [HER-2/neu amino acids 372-381] | + | + | 
FAGCKKIFGSL (homo sapiens) [HER-2/neu amino acids 364-374] | + | + | 
SLAFLPESF (homo sapiens) | + | + | 
FAGCKKIFGSLAFLPESFD (homo sapiens) [19-mer polypeptide, substrate of the cleavage assay] |  |  | Processing by purified 20S proteasome and immunoproteasome ([1]; 19-mer FAGCKKIFGSLAFLPESFD as substrate): consistently found to be processed into several other shorter polypeptides
LAFLPESFD (homo sapiens) | + | + | 
SLAFLPESFD (homo sapiens) | + | + | Release from 23-mer treated with the proteasomes ([1]; 23-mer containing p373-382 as substrate): released from the 23-mer; Recognition of polypeptide-pulsed target cells by T cells generated with the polypeptide [2]: recognized target cells pulsed with either the p373-382 polypeptide or the p369-377 polypeptide; Recognition of breast cancer cells by CD8+ T cells generated with the polypeptide [3]: able to recognize the breast cancer cells at much higher levels; Lysis of breast cancer cell lines by CD8+ T cells generated with the polypeptide (breast cancer cell lines): recognized and lysed all tested breast cancer cell lines at much higher levels; Reactivity (IFN-γ release) of generated T cells with neutralizing HLA-A2 or HLA-ABC antibody [4]: markedly suppressed; Lysis of tumor cells by generated T cells with neutralizing HLA-A2 or HLA-ABC antibody (tumor cells): blocked lysis of tumor cells
GSLAFLPESFD (homo sapiens) | + | + | 
FGSLAFLPESF (homo sapiens) [HER-2/neu amino acids 371-381] | + | + | 
